Assay results reported in patent US8987309B2, “Compounds, pharmaceutical compositions and methods of use of 2-aryl pyridylazoles” (The Translational Genomics Research Institute, priority 2009, dated 2015).

Tests used:
Caki-1 = assay: IC50 in tumor cell lines (Caki-1); format: cell-based; settings: Table 2; kidney tumor cell line Caki-1
Experimental: (§1) Cytotoxicity Assays. Cytotoxicity assays in the mechanism of action studies were performed according to Mosmann (1983), wherein the activity of mitochondrial reductases were measured using 3-(4,5-dimethylthiozol-3-yl)-2,5-diphenyltetrozolium bromide dye. In brief, cells were seeded in 96-well plates and incubated for various times at 37° C. Inhibition of cell growth was measured by adding 3-(4,5-dimethylthiozol-3-yl)-2,5-diphenyltetrozolium bromide dye, and after an additional 4 h of incubation at 37° C., the 96-well plates were centrifuged, and the culture supernatant was removed. DMSO was added to each well to solubilize the formazan crystals, and the optical density was read at 540 nm on a Quant Spectrophotometer (BioTek Instruments, Winooski, Vt.). Cell growth inhibition data are expressed as percentage of survival compared with untreated cells. The IC50 is defined as the drug concentration required to produce 50% growth inhibition. Results are mean S.E.M. (n 3).

PC3 = assay: IC50 in tumor cell lines (PC3); format: cell-based; settings: prostate tumor cell line PC3
Experimental: as §1

PIM-1 [1] = target: T1, PIM-1 (Homo sapiens, UniProt P11309); assay: Follow-up kinase screening and IC50 (SignalChem), PIM-1; format: biochemical; parameters: assay run by SignalChem Pharmaceuticals, Inc. (Richmond, BC, Canada)
T1 sequence (P11309 whole entry): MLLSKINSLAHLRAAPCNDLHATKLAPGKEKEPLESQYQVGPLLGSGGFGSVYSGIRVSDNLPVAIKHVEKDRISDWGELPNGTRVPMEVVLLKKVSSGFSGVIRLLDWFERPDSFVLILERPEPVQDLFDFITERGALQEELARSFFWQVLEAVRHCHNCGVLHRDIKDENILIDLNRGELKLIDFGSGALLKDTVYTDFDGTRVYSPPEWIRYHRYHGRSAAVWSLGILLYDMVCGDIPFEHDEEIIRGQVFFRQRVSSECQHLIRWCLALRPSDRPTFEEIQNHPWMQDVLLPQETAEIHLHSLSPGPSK

[2] = Storage stability by LC-MS; format: physicochemical
Experimental: Stability Studies. LC-MS was used to evaluate the stability of DPC-046 kept at −20° C. or at 22° C., unprotected from light. After 2 years of storage, there was a measurable (8.6%) loss of parent compound when stored at −20° C. in the dark and a 43.6% loss at 22° C. in light.

A498 = assay: IC50 in tumor cell lines (A498); format: cell-based; settings: Table 2; kidney tumor cell line A498
Experimental: as §1

PIM-1 [3] = target: T1, PIM-1; assay: Initial kinase screening (Amphora), PIM-1; format: biochemical; parameters: assay run by Amphora Discovery Corporation (Durham, N.C.); settings: 10 μM compound
Experimental: (§2) Kinase Screening. Initial kinase screening was performed by Amphora Discovery Corporation (Durham, N.C.).

BxPC3 DPC-4(−/−) cells = assay: Measurement of apoptosis and necrosis (Annexin V/PI); format: cell-based, Human; settings: 24 to 72 h, highest concentration 1500 nM
Experimental: Measurement of Apoptosis and Necrosis. Apoptosis and necrosis after DPC-046 treatment was measured at 24 to 72 h by flow cytometry (Vermes et al., 1995) using Annexin V-Alexa Fluor 488 (Invitrogen) and propidium iodide (BioVision, Mountain View, Calif.). Because of the greater photostability of Alexa Fluor 488 over fluorescein isothiocyanate, we substituted Alexa Fluor 488-labeled Annexin V for fluorescein isothiocyanate-labeled Annexin V. Apoptosis was measured by positive Annexin V staining, indicating the translocation of phosphatidylserine on the cell membrane of apoptotic cells, whereas necrosis was measured by dual labeling of Annexin V and propidium iodide of necrotic cells. Unstained cells were deemed alive. Fluorescence of Annexin V-Alexa Fluor 488 and PI was measured on FL1 and FL2, respectively, on a BD Biosciences FACScan using CellQuest Pro software (BD Biosciences). Data are mean S.E.M. (n 3).
Mean±S.E.M., n=3. […] Mean±S.E.M., n=3. […] Mean tumor burden is shown.

MiaPaCa-2 tumors = assay: Antitumor efficacy and tolerability, MiaPaCa-2 tumors in SCID mice
Experimental: In Vivo Studies. Six- to 7-week-old male SCID mice were implanted with 10×10^6 MiaPaCa-2 cells in MatriGel (BD Biosciences) subcutaneously in the flank to establish tumors. Once the tumors reached approximately 100 mm^3 and were palpable (approximately 3 weeks later), DPC-046 treatment was initiated. […] Mice were administered vehicle alone or 44, 55, or 66 mg/kg/day DPC-046 intraperitoneally for 5 consecutive days. Tumor size, body weight, and general health of each mouse were recorded every 3rd day for the duration of the study.
FIG. 15 depicts the antitumor efficacy of (D)PC-046 in SCID mice. 10×10^6 MiaPaCa-2 cells in MatriGel were implanted subcutaneously into the flanks of SCID mice. Mice were randomized on day 6 (arrow) and then injected with vehicle alone or 44 or 55 mg/kg/day (D)PC-046 intraperitoneally daily for 5 consecutive days. Mean tumor burden is shown. Mean±S.D. (n=4 or 5). FIG. 16 depicts the AUC of tumor size versus time of MiaPaCa-2 tumors in SCID mice.

TrkB = TrkB (Homo sapiens, UniProt Q16620); assay: Initial kinase screening (Amphora), TrkB; format: biochemical; parameters: assay run by Amphora Discovery Corporation (Durham, N.C.); settings: 10 μM compound
TrkB, sequence (Q16620 32-822): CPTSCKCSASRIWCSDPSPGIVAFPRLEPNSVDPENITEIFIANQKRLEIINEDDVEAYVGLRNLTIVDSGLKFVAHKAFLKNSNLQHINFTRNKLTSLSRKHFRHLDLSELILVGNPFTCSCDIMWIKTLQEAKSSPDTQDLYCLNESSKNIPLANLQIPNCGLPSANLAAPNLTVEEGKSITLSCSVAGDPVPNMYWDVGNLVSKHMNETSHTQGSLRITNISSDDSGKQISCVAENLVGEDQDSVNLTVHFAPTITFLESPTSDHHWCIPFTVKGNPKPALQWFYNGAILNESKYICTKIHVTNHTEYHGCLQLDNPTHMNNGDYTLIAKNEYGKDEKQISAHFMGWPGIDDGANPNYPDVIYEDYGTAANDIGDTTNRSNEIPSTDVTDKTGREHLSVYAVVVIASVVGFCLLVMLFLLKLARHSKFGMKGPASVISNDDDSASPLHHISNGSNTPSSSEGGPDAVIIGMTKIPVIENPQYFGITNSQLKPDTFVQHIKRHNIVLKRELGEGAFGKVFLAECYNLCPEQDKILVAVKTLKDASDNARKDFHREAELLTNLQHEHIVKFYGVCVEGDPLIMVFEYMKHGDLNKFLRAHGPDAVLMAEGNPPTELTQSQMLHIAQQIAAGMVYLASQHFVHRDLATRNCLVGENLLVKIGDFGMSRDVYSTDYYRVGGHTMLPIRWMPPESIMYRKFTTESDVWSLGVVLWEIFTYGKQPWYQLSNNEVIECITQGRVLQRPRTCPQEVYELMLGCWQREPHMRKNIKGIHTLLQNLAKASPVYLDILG
Experimental: as §2

[4] = Pharmacokinetic study, single intravenous dose; format: in vivo, SCID mice; settings: single intravenous 88 mg/kg
Experimental: Pharmacokinetic Studies. The pharmacokinetics of DPC-046 in nontumor bearing SCID mice was determined after intravenous administration of a single dose of 88 mg/kg. Plasma samples were collected at 0, 1, 5, 15, 30, 60, 90, 120, 240, 480, 960, and 1440 min after dosing. Plasma DPC-046 concentrations were analyzed by reversed-phase chromatography and tandem mass spectrometry. In brief, mouse plasma was mixed with 99 volumes of acetonitrile, and an aliquot of the supernatant was injected onto the LC-MS. The LC-MS analysis was performed on a ThermoFinnigan Quantum Ultra triple quadrupole mass spectrometer (Thermo Fisher Scientific, Waltham, Mass.) in tandem with a Surveyor LC system. […] Data are mean±S.E.M. (n=3).

[5] = tested on: synthesis of DNA, RNA, or protein; assay: Measurement of macromolecular synthesis (radiolabeled precursors); format: cell-based
Experimental: Measurement of Macromolecular Synthesis. Radiolabeled precursors of DNA ([^3H]thymidine) and protein ([^14C]valine) were obtained from GE Healthcare (Piscataway, N.J.). The RNA precursor [^3H]uridine was obtained from MP Biomedical (Irvine, Calif.). In brief, cells were plated in 96-well plates and allowed to adhere before adding DPC-046 for 24 to 72 h. Radiolabeled precursors ([…] for thymidine and uridine, and 0.05 µCi/well for valine) were added and allowed to incorporate for 6 h at 37° C. Cells were harvested onto Unifilter-96 GF/B filterplates using a Packard Filtermate 96-well harvester and counted using a Packard Top Count NXT 96-well scintillation counter (PerkinElmer Life and Analytical Sciences, Boston, Mass.).

OVCAR3 = assay: IC50 in tumor cell lines (OVCAR3); format: cell-based; settings: Table 2; ovarian tumor cell line OVCAR3
Experimental: as §1

MCF7 = assay: IC50 in tumor cell lines (MCF7); format: cell-based; settings: Table 2; breast tumor cell line MCF7
Experimental: as §1

IRAK-4 = target: T2, IRAK-4 (Homo sapiens, UniProt Q9NWZ3); assay: Follow-up kinase screening and IC50 (SignalChem), IRAK-4; format: biochemical
T2 construct: assay run by SignalChem Pharmaceuticals, Inc. (Richmond, BC, Canada)
T2 sequence (Q9NWZ3 whole entry): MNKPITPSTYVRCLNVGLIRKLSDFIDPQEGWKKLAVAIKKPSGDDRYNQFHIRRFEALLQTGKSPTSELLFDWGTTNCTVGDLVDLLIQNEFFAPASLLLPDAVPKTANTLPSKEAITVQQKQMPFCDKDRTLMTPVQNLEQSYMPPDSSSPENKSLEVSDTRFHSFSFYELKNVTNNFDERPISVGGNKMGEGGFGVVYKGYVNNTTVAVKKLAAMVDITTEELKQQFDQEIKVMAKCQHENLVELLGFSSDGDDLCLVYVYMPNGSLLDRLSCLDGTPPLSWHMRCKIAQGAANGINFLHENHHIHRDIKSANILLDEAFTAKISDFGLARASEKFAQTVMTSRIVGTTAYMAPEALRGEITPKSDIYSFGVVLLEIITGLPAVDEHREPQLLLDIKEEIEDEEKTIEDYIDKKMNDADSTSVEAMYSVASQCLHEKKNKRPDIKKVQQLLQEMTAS

[6] = 25 μM DPC-046, follow-up screen
[7] = highest concentration tested (50 μM)
[8] = 66 mg/kg/day i.p., 5 consecutive days, initial dose-ranging study

COc1ccc(-c2cnc(-c3ccncc3-c3cccc(OC)c3)o2)cc1 [DPC046]
IC50 (Caki-1): 13 nM | IC50 (PC3; Table 1): 6.5 nM | IC50 (PC3; Table 2): 6.5 nM | inhibition of PIM-1 (PIM-1 [1]; [6]): more than 70% | IC50 (PIM-1 [1]; eight-point concentration range 10 nM to 50 μM): 19100 nM | inhibition of PIM-1 (PIM-1 [1]; [7]): 84% | loss of parent compound ([2]; 2 years of storage at 22° C. in light): 43.6% | loss of parent compound ([2]; 2 years of storage at −20° C. in the dark): 8.6% | IC50 (A498): 14 nM | inhibition of PIM-1 (PIM-1 [3]): 50% | mechanism of cell death (in words) (BxPC3 DPC-4(−/−) cells; listed as (D)PC-046): both early apoptotic and necrotic cell death | mechanism of cell death (in words) (BxPC3 DPC-4(−/−) cells; listed as DPC-046): cell death by a combination of apoptosis and necrosis | antitumor efficacy (in words) (MiaPaCa-2 tumors; 44 mg/kg/day daily for 5 days): not effective | average loss of body weight (MiaPaCa-2 tumors; 55 mg/kg/day group, while receiving injections, recovered by end of study): 15.8% | area under the tumor size X time curve vs controls (in words) (MiaPaCa-2 tumors; 55 mg/kg/day group, p=0.014): statistically significant reduction | weight loss (MiaPaCa-2 tumors; 55 mg/kg/day, daily for 5 days, initial study): 10% | MiaPaCa-2 tumor growth vs untreated controls (in words) (MiaPaCa-2 tumors; 55 mg/kg/day, daily for 5 days, preliminary data not shown): reduced MiaPaCa-2 tumor growth | tolerability (in words) (MiaPaCa-2 tumors; 66 mg/kg/day i.p., 5 consecutive days): not tolerated | death (MiaPaCa-2 tumors; [8]): 60% | weight loss (MiaPaCa-2 tumors; [8]): −15% | MiaPaCa-2 tumor growth vs untreated group (in words) (MiaPaCa-2 tumors; experiment comparing 44 or 55 mg/kg/day daily for 5 days): significant inhibition of MiaPaCa-2 tumor growth | inhibition of TrkB (TrkB): 55% | apparent volume of distribution ([4]; mice): 135.2 L/kg | clearance ([4]; mice): 248 mL/min/kg | mean (S.D.) plasma concentration at last sampling time ([4]; mice, 24 h): 0.226 (0.104) μM | mean (S.D.) peak plasma concentration ([4]; mice, first sampling time (1 min)): 10.8 (4.26) μM | monoexponential half-life ([4]; mouse plasma): 7.5 h | selectivity of inhibition of DNA, RNA or protein synthesis (in words) ([5]; 24 to 72 h): no selective inhibition | IC50 ([5]; DNA, RNA, protein, average, at 72 h, read-out: IC50 for inhibition of synthesis of each macromolecule): ~3000 nM | IC50 (OVCAR3): 13 nM | IC50 (MCF7): 11 nM | inhibition of IRAK-4 (IRAK-4; [6]): more than 70% | inhibition of IRAK-4 (IRAK-4; [7]): 92%
